Measurements published in patent US12201632B2, “Levoketoconazole for treatment of congenital adrenal hyperplasia and primary aldosteronism” (Strongbridge Dublin Limited, priority 2018, dated 2025).
pIC50: −log10 of the molar value. Read-outs that look alike come from different tables or passages of the source. Values belong to the compound of their own block, whether it stands above or below them.

Legend:
[1] = tested on: human primary adrenocortical cultures; experiment: Cortisol production in human primary adrenocortical cultures, comparison across cultures; type: cell-based
Protocol: (§1) To obtain primary cultures, adrenal specimens (adrenocortical adenomas, adrenal hyperplasias and adrenocortical carcinomas) were collected after adrenalectomy at the department of Surgery, Erasmus University Medical Center, Rotterdam, the Netherlands, between April 2016 and May 2018. The study was conducted under guidelines that have been approved by the Medical Ethics Committee of the Erasmus Medical Center and informed consent was obtained from all patients. Immediately after surgery, specimens were minced into small pieces of 2-3 mm^3, washed in culture medium and centrifuged for 5 minutes at 600 g. The tissue was stored overnight in culture medium at 4° C., where after the tissue was centrifuged again and the supernatant was removed. Fragments were dissociated using 10-25 ml collagenase type 1 (2 mg/ml: Sigma-Aldrich), followed by incubation at 37° C. for up to two hours. Ficoll (GE healthcare) density gradient separation was used once or twice as required in order to separate contaminating red blood cells from the tumor cells. Cell viability and cell amount were counted by trypan blue exclusion. Dissociated cells were plated at a density of 10^5 cells per well. ACTH-secreting corticotroph pituitary adenoma tissue from patients with Cushing's disease (n=2) was available after transsphenoidal surgery. Single-cell suspensions of the pituitary adenoma tissues were prepared as previously described in detail.
(§2) Primary culture conditions for primary cultures were similar as described in the section ‘cell culture and compounds’, but with small adjustments: ACTH was used at a concentration of 85 pM (250 pg/mL), treatment was started 3-4 days after plating of the cells and cells were incubated for 3 days, and; for pituitary primary cultures, levoketoconazole and racemic ketoconazole were only tested at a concentration of 1 μM. Owing to a limited number of cells obtained from the specimens, not all experiments were carried out in every primary culture.
(§3) Cortisol concentrations were measured in the supernatant using a chemiluminescence immunoassay system (Immulite 2000XPi; Siemens DPC Inc., Los Angeles, Calif., USA). In addition, we carried out multi-steroid analysis by liquid chromatography/mass spectrometry (LC/MS-MS) to accurately quantify androstenedione, corticosterone, cortisol, 11-deoxycortisol, DHEA, DHEAS, progesterone, 17-hydroxyprogesterone, and testosterone. Concentrations that were tested on the LC/MS-MS were closest to 50% inhibition or maximal inhibition of cortisol as determined by the immunoassay. Steroids were quantified with respect to a calibration series, with internal standards. Steroids were quantified on a Xevo TQS LC-MS/MS (Waters Chromatography).
(§4) Statistical analysis was performed using Graphpad Prism 6.0 (Graphpad Software, San Diego, CA). Non-linear regression curve fitting program was used to calculate the half maximal inhibitory concentrations (IC50) on cortisol production. Effects of both compounds on the steroid profile were measured as absolute change compared to control and compared using the Student's t-test. When assessing differences between effects of both compounds, the percentage change was evaluated and compared in order to correct for differences in the vehicle treated control cells. Values of P<0.05 were considered statistically significant and data are presented as mean SEM.

[2] = tested on: CPA primary culture no. 2; experiment: Steroid profile by LC/MS-MS in CPA primary culture no. 2; type: cell-based, human; conditions: for 11-DOC absolute change vs control / 11-DOC percentage change vs control / 17-OHP absolute change vs control / 17-OHP percentage change vs control / Androstenedione absolute change vs control / Androstenedione percentage change vs control / Corticosterone absolute change vs control / Corticosterone percentage change vs control / Cortisol absolute change vs control / Cortisol percentage change vs control / DHEA absolute change vs control / DHEAS absolute change vs control / Prog absolute change vs control / Prog percentage change vs control / Testosterone absolute change vs control / Testosterone percentage change vs control: CPA no. 2, Basal, 3 days
Protocol: as §1, §2, §3, §4

[3] = tested on: EAS associated adrenal hyperplasia cultures; experiment: Cortisol production in primary EAS associated adrenal hyperplasia cultures; type: cell-based, human
Protocol: as §1
Owing to a limited number of cells obtained from the specimens, not all experiments were carried out in every primary culture.
as §3, §4

[4] = six of the ten conditions with direct comparison in the same patient

mean difference in IC50 between both compounds ([1]; four remaining cultures): 5% | range of difference in IC50 between both compounds ([1]; four remaining cultures): 1-8% | mean increase IC50 compared to levoketoconazole [1, 4]: 52% | range of increase IC50 compared to levoketoconazole [1, 4]: 33-113% | pIC50 ([3]; Homo sapiens, 72 h, EAS associated hyperplasia no. 1, ACTH (85 μM) stimulated condition, 3 days, read-out: IC50 inhibition of cortisol production): 6.98 | pIC50 ([3]; Homo sapiens, 72 h, EAS associated hyperplasia no. 1, basal condition, 3 days, read-out: IC50 inhibition of cortisol production): 7.58 | pIC50 ([3]; Homo sapiens, 72 h, EAS associated hyperplasia no. 2, basal condition, 3 days, read-out: IC50 inhibition of cortisol production): 7.53
SMILES: CC(=O)N1CCN(c2ccc(OCC3COC(Cn4ccnc4)(c4ccc(Cl)cc4Cl)O3)cc2)CC1 (racemic) [racemic ketoconazole, Ketoconazole]
11-DOC absolute change vs control ([2]; 0.1 μM): +6.400 nmol/l | 11-DOC percentage change vs control ([2]; 0.1 μM): (+2.4%) | 17-OHP absolute change vs control ([2]; 0.1 μM): -0.4750 nmol/L | 17-OHP percentage change vs control ([2]; 0.1 μM): (−2.4%) | Androstenedione absolute change vs control ([2]; 0.1 μM): -32.85 nmol/L | Androstenedione percentage change vs control ([2]; 0.1 μM): −66% | Corticosterone absolute change vs control ([2]; 0.1 μM): +175.8 nmol/l | Corticosterone percentage change vs control ([2]; 0.1 μM): +213% | Cortisol absolute change vs control ([2]; 0.1 μM): -92.95 nmol/L | Cortisol percentage change vs control ([2]; 0.1 μM): −14% | DHEA absolute change vs control ([2]; 0.1 μM): <LLQ | DHEAS absolute change vs control ([2]; 0.1 μM): <LLQ | Prog absolute change vs control ([2]; 0.1 μM): +0.5167 nmol/l | Prog percentage change vs control ([2]; 0.1 μM): (+36%) | Testosterone absolute change vs control ([2]; 0.1 μM): -0.3250 nmol/L | Testosterone percentage change vs control ([2]; 0.1 μM): (−57%) | Androstenedione percentage change vs control ([2]; 0.1 μM, listed as RK): (−66%*) | Corticosterone percentage change vs control ([2]; 0.1 μM, listed as RK): (+213%****) | Cortisol percentage change vs control ([2]; 0.1 μM, listed as RK): (−14%**) | 11-DOC absolute change vs control ([2]; 0.5 μM): -37.70 nmol/L | 11-DOC percentage change vs control ([2]; 0.5 μM): (−14%***) | 17-OHP absolute change vs control ([2]; 0.5 μM): +11.45 ± 1 nmol/l | 17-OHP percentage change vs control ([2]; 0.5 μM): (+58%*) | Androstenedione absolute change vs control ([2]; 0.5 μM): -47.28 nmol/L | Androstenedione percentage change vs control ([2]; 0.5 μM): (−95%) | Corticosterone absolute change vs control ([2]; 0.5 μM): +143.8 nmol/l | Corticosterone percentage change vs control ([2]; 0.5 μM): (+174%*) | Cortisol absolute change vs control ([2]; 0.5 μM): -562.7 nmol/L | Cortisol percentage change vs control ([2]; 0.5 μM): (−87%) | DHEA absolute change vs control ([2]; 0.5 μM): <LLQ | DHEAS absolute change vs control ([2]; 0.5 μM): <LLQ | Prog absolute change vs control ([2]; 0.5 μM): +22.47 nmol/l | Prog percentage change vs control ([2]; 0.5 μM): (+1567%) | Testosterone absolute change vs control ([2]; 0.5 μM): -0.4475 nmol/L | Testosterone percentage change vs control ([2]; 0.5 μM): (−79%) | total change of steroids: increase ([2]; CPA no. 2, basal, 0.1 μM): 55.6 nmol/L

SMILES: CC(=O)N1CCN(c2ccc(OC[C@@H]3CO[C@@](Cn4ccnc4)(c4ccc(Cl)cc4Cl)O3)cc2)CC1 (relative stereo) [levoketoconazole, 2S,4R cis-1-acetyl-4-[4-[[2-(2,4-dichlorophenyl)-2-(1H-imidazol-1-ylmethyl)-1,3-dioxolan-4-yl]methoxyl]phenyl]piperazine]
difference in IC50 value between patients and tissue specimens ([1]; primary human adrenocortical cultures): 24 fold | 11-DOC absolute change vs control ([2]; 0.1 μM): +14.80 nmol/l | 11-DOC percentage change vs control ([2]; 0.1 μM): (+5.4%) | 17-OHP absolute change vs control ([2]; 0.1 μM): +5.125 nmol/l | 17-OHP percentage change vs control ([2]; 0.1 μM): (+26%) | Androstenedione absolute change vs control ([2]; 0.1 μM): -36.68 nmol/L | Androstenedione percentage change vs control ([2]; 0.1 μM): −79% | Corticosterone absolute change vs control ([2]; 0.1 μM): +49.50 nmol/l | Corticosterone percentage change vs control ([2]; 0.1 μM): +54% | Cortisol absolute change vs control ([2]; 0.1 μM): -264.2 nmol/L | Cortisol percentage change vs control ([2]; 0.1 μM): −40% | DHEA absolute change vs control ([2]; 0.1 μM): <LLQ | DHEAS absolute change vs control ([2]; 0.1 μM): <LLQ | Prog absolute change vs control ([2]; 0.1 μM): +2.350 nmol/l | Prog percentage change vs control ([2]; 0.1 μM): (+138%) | Testosterone absolute change vs control ([2]; 0.1 μM): -0.3750 nmol/L | Testosterone percentage change vs control ([2]; 0.1 μM): −66% | Androstenedione absolute change vs control ([2]; 0.1 μM, listed as LK): -36.68 nmol/L | Androstenedione percentage change vs control ([2]; 0.1 μM, listed as LK): (−79%) | Corticosterone percentage change vs control ([2]; 0.1 μM, listed as LK): (+54%) | Cortisol absolute change vs control ([2]; 0.1 μM, listed as LK): -264.2 nmol/L | Cortisol percentage change vs control ([2]; 0.1 μM, listed as LK): (−40%) | Testosterone absolute change vs control ([2]; 0.1 μM, listed as LK): -0.3750 nmol/L | Testosterone percentage change vs control ([2]; 0.1 μM, listed as LK): (−66%) | 11-DOC absolute change vs control ([2]; 0.5 μM): -98.25 nmol/L | 11-DOC percentage change vs control ([2]; 0.5 μM): (−36%) | 17-OHP absolute change vs control ([2]; 0.5 μM): +21.28 nmol/l | 17-OHP percentage change vs control ([2]; 0.5 μM): (+107%) | Androstenedione absolute change vs control ([2]; 0.5 μM): -45.18 nmol/L | Androstenedione percentage change vs control ([2]; 0.5 μM): (−97%) | Corticosterone absolute change vs control ([2]; 0.5 μM): +218.0 nmol/l | Corticosterone percentage change vs control ([2]; 0.5 μM): (+239%) | Cortisol absolute change vs control ([2]; 0.5 μM): -633.3 nmol/L | Cortisol percentage change vs control ([2]; 0.5 μM): (−96%) | DHEA absolute change vs control ([2]; 0.5 μM): <LLQ | DHEAS absolute change vs control ([2]; 0.5 μM): <LLQ | Prog absolute change vs control ([2]; 0.5 μM): +39.95 nmol/l | Prog percentage change vs control ([2]; 0.5 μM): (+2350%) | Testosterone absolute change vs control ([2]; 0.5 μM): -0.4725 nmol/L | Testosterone percentage change vs control ([2]; 0.5 μM): (−83%) | total change of steroids: decrease ([2]; CPA no. 2, basal, 0.1 μM): 229.5 nmol/L | pIC50 ([3]; EAS associated hyperplasia no. 1, ACTH (85 μM) stimulated condition, 3 days, read-out: IC50 inhibition of cortisol production): 7.10 | pIC50 ([3]; EAS associated hyperplasia no. 1, basal condition, 3 days, read-out: IC50 inhibition of cortisol production): 7.56 | pIC50 ([3]; EAS associated hyperplasia no. 2, basal condition, 3 days, read-out: IC50 inhibition of cortisol production): 7.66 | pIC50 ([3]; basal condition, EAS associated adrenal hyperplasia (n=2), read-out: mean IC50 cortisol production): 7.59
